Data from US8648070B2, “Bicyclic ring system substituted sulfonamide functionalised phenols as medicaments” (Boehringer Ingelheim International GmbH, priority 2010, dated 2014).

Molecular target: T1, human CXCR2 (Homo sapiens, UniProt P25025)
T1 construct: expressed in transfected cells; host or cells: BAF/3 cells
T1 sequence (P25025 1-360): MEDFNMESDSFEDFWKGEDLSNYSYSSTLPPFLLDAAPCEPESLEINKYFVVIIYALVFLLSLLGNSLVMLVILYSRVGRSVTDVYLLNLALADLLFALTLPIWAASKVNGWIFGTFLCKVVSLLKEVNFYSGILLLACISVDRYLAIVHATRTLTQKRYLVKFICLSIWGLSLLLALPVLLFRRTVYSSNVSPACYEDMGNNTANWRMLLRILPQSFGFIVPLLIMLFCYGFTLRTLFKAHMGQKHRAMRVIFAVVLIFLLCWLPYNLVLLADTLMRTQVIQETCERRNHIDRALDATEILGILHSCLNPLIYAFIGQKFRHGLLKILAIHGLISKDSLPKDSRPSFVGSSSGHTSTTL
Assay: Chemotaxis assay 1, transfected cell line: inhibition of CXCL1 induced chemotaxis of BAF/3 cells expressing human CXCR2
Format: cell-based
Conditions: CXCL1 (3 nM) induced chemotaxis of BAF/3 cells expressing human CXCR2, 4 hours, Cell Titer Glo readout
Procedure: Chemotaxis Assay 1, Transfected Cell Line:
This assay measures the inhibition of CXCL1 induced chemotaxis of BAF/3 cells expressing human CXCR2. For each assay point, 100 μL of a 3×10^6/mL cell suspension are incubated with 1 μL of test compound diluted in DMSO. The bottom wells of a chemotaxis plate (5 μm pore size, Neuroprobe) is filled with 305 μL of chemotaxis buffer (RPMI 1640 medium (phenol red free), containing 2% fetal calf serum) and 3 nM CXCL1. The 5 μm pore membrane is applied onto the chemotaxis plate and 80 μL of the cell suspension is cautiously pipetted onto the membrane. The lid is put on the chemotaxis plate and the plate is incubated for 4 hours in an incubator (37° C., 5% CO2). For quantification of migrated cells, the cell suspension and the lid are removed and 100 μL from the bottom chamber are transferred to an Opti plate 96 (Perkin Elmer). 100 μL of substrate solution (provided by Cell Titer Glo kit, Promega) are added. This method uses the measurement of ATP present in metabolically active cells. After 10 min incubation at room temperature the plate is measured at Luminoscan for quantification of ATP-dependent generation of oxyluciferin. IC50s of the tested compound are calculated by non-linear regression and using a sigmoidal dose-response curve as fitting algorithm (provided by GraphPadPrism). Determination of a bottom value is performed by quantification of migration of buffer treated cells, migrating towards buffer only. Determination of a top value is performed by quantification of migration of buffer treated cells, migrating towards CXCL1.

Structure (SMILES) | IC50 [nM]
O=c1c(Nc2ccc(Cl)c(S(=O)(=O)N3CCN4CCCC4C3)c2O)c(Nc2cccc(F)c2Cl)c1=O (centres unmarked) [Example 3] | 5.1
CC[C@@H](Nc1c(Nc2ccc(Cl)c(S(=O)(=O)N3CCN4CCOCC4C3)c2O)c(=O)c1=O)c1ccccc1 (some centres unmarked) [Example 4] | 0.6
CC[C@@H](Nc1c(Nc2ccc(Cl)c(S(=O)(=O)N3CCN4CCOCC4C3)c2O)c(=O)c1=O)c1ccc(C)o1 (some centres unmarked) [Example 5] | 6.8
O=c1c(Nc2ccc(Cl)c(S(=O)(=O)N3CCN4CCOCC4C3)c2O)c(Nc2cccc(F)c2Cl)c1=O (centres unmarked) [Example 6] | 37.8
CC[C@@H](Nc1c(Nc2ccc(Cl)c(S(=O)(=O)N3CCN4CCOC[C@@H]4C3)c2O)c(=O)c1=O)c1ccc(C)o1 [Example 9] | 13.4
CC[C@@H](Nc1c(Nc2ccc(Cl)c(S(=O)(=O)N3CCN4CCOC[C@@H]4C3)c2O)c(=O)c1=O)c1ccc(C(F)(F)F)o1 [Example 10] | 64.8
CC[C@@H](Nc1c(Nc2ccc(Cl)c(S(=O)(=O)N3CCC4(CCNC4=O)CC3)c2O)c(=O)c1=O)c1ccccc1 [Example 13] | 22.6
CC[C@@H](Nc1c(Nc2ccc(Cl)c(S(=O)(=O)N3CCC4(CCNC4=O)CC3)c2O)c(=O)c1=O)c1ccc(C)o1 [Example 14] | 47.1
CC[C@@H](Nc1c(Nc2ccc(Cl)c(S(=O)(=O)N3CCC4(CC3)COCCN4)c2O)c(=O)c1=O)c1ccc(C)o1 [Example 16] | 8.7
CC[C@@H](Nc1c(Nc2ccc(Cl)c(S(=O)(=O)N3C[C@H]4NCCO[C@@H]4C3)c2O)c(=O)c1=O)c1ccc(C)o1 [Example 20] | 58.6

The next lines start with the values.

IC50 [nM] | Structure (SMILES)
0.7 | CC[C@@H](Nc1c(Nc2ccc(Cl)c(S(=O)(=O)N3CCN4CCCC4C3)c2O)c(=O)c1=O)c1ccccc1 (some centres unmarked) [Example 1]
0.9 | CC[C@@H](Nc1c(Nc2ccc(Cl)c(S(=O)(=O)N3CCN4CCCC4C3)c2O)c(=O)c1=O)c1ccc(C)o1 (some centres unmarked) [Example 2]
4.9 | CC[C@@H](Nc1c(Nc2ccc(Cl)c(S(=O)(=O)N3CCN4CCOC[C@H]4C3)c2O)c(=O)c1=O)c1ccc(C)o1 [Example 7]
56.6 | CC[C@@H](Nc1c(Nc2ccc(Cl)c(S(=O)(=O)N3CCN4CCOC[C@H]4C3)c2O)c(=O)c1=O)c1ccc(C(F)(F)F)o1 [Example 8]
2.6 | CCC(Nc1c(Nc2ccc(Cl)c(S(=O)(=O)N3CCN4C(=O)CCC4C3)c2O)c(=O)c1=O)c1ccccc1 (centres unmarked) [Example 11]
14.4 | CCC(Nc1c(Nc2ccc(Cl)c(S(=O)(=O)N3CCN4C(=O)CCC4C3)c2O)c(=O)c1=O)c1ccc(C)o1 (centres unmarked) [Example 12]
33.8 | CC[C@@H](Nc1c(Nc2ccc(Cl)c(S(=O)(=O)N3CCC4(CC3)COCCN4)c2O)c(=O)c1=O)c1ccccc1 [Example 15]
54.4 | CC[C@@H](Nc1c(Nc2ccc(Cl)c(S(=O)(=O)N3CCC4(CC3)COCCN4)c2O)c(=O)c1=O)c1ccc(C(F)(F)F)o1 [Example 17]
149 | CC[C@@H](Nc1c(Nc2ccc(Cl)c(S(=O)(=O)N3CCC4(CCCC4)CC3)c2O)c(=O)c1=O)c1ccccc1 [Example 18]
11.6 | CC[C@@H](Nc1c(Nc2ccc(Cl)c(S(=O)(=O)N3CCC4(CCCC4)CC3)c2O)c(=O)c1=O)c1ccc(C)o1 [Example 19]
